Molecular target: recombinant CD73 (Homo sapiens (Human), UniProt P21589)
Assay: Assay 2: Inhibition of the CD73 enzyme in vitro (0.05 nM CD73, 1 hour 37° C., Malachite Green)
Format: biochemical
Details: 0.05 nM CD73, 50 μM AMP, 1 hour at 37° C.
Method: For measurements of soluble CD73 enzyme activity, recombinant CD73 was obtained from R&D Systems, Cat. No. 5795-EN-010. […] Reactions were allowed to proceed for 1 hour at 37° C. before the addition of 100 μL Malachite Green (Cell Signaling Technology, Cat. No. 12776). After 5 minutes at room temperature, absorbance at 630 nm was determined on a microplate spectrophotometer. The concentration of inorganic phosphate was determined using a phosphate standard curve.

recombinant CD73, sequence (P21589 27-547): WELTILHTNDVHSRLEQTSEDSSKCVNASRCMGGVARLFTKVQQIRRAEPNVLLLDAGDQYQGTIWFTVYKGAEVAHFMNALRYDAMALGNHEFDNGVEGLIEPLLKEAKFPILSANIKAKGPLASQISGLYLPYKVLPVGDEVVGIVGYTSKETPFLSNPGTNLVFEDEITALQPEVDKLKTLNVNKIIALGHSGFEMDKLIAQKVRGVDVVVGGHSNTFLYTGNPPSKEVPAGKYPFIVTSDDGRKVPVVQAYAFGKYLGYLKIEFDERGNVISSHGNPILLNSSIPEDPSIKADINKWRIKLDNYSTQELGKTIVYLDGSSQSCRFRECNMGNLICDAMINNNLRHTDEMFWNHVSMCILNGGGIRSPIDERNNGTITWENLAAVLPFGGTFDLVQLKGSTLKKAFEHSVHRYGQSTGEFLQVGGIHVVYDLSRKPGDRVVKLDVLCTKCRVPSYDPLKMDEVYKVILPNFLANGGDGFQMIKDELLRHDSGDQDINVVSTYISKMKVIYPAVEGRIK

Row | IC50 [nM] | Structure (SMILES)
1 | 261 | C#C[C@@]1(O)[C@@H](CO[C@](Cc2ccc(N3CCCNC3=O)cc2)(C(=O)O)C(=O)OCC)O[C@@H](n2cnc3c(N)nc(Cl)nc32)[C@@H]1O (single isomer, unassigned) [Example 164]
2 | 45 | C#C[C@@]1(O)[C@@H](CO[C@@](Cc2ccc(N3CCCNC3=O)cc2)(C(=O)O)C(=O)OCC)O[C@@H](n2cnc3c(N)nc(Cl)nc32)[C@@H]1O (single isomer, unassigned) [Example 165]
3 | 145 | C#C[C@@]1(O)[C@@H](CO[C@H](Cc2ccc(N3CCCNC3=O)cc2)C(=O)O)O[C@@H](n2cnc3c(N)nc(Cl)nc32)[C@@H]1O (single isomer, unassigned) [Example 166]
4 | 139 | C#C[C@@]1(O)[C@@H](CO[C@@H](Cc2ccc(N3CCCNC3=O)cc2)C(=O)O)O[C@@H](n2cnc3c(N)nc(Cl)nc32)[C@@H]1O (single isomer, unassigned) [Example 167]
5 | 8 | C#C[C@@]1(O)[C@@H](CO[C@](Cc2ccccc2)(C(=O)O)c2cscn2)O[C@@H](n2cnc3c(NC(C)C)nc(Cl)nc32)[C@@H]1O (single isomer, unassigned) [Example 170]
6 | 96 | C#C[C@@]1(O)[C@@H](CO[C@@](Cc2ccccc2)(C(=O)O)c2cscn2)O[C@@H](n2cnc3c(NC(C)C)nc(Cl)nc32)[C@@H]1O (single isomer, unassigned) [Example 171]
7 | 6 | C#C[C@@]1(O)[C@@H](CO[C@](Cc2ccccc2)(C(=O)O)c2cscn2)O[C@@H](n2cnc3c(NCC4CC4)nc(Cl)nc32)[C@@H]1O (single isomer, unassigned) [Example 172]
8 | 112 | C#C[C@@]1(O)[C@@H](CO[C@@](Cc2ccccc2)(C(=O)O)c2cscn2)O[C@@H](n2cnc3c(NCC4CC4)nc(Cl)nc32)[C@@H]1O (single isomer, unassigned) [Example 173]
9 | 147 | C#C[C@@H]1[C@@H](O)[C@H](n2cnc3c(N)nc(Cl)nc32)O[C@@H]1COC(Cc1ccccc1)(C(=O)O)C(=O)O [Compound 2, 2-(((2S,3R,4R,5R)-5-(6-amino-2-chloro-9H-purin-9-yl)-3-ethynyl-4-hydroxytetrahydrofuran-2-yl)methoxy)-2-benzylmalonic acid]
10 | 1 | CC#C[C@@]1(O)[C@@H](COC(Cc2ccccc2)(C(=O)O)C(=O)O)O[C@@H](n2cnc3c(N)nc(Cl)nc32)[C@@H]1O [Compound 3, 2-(((2R,3S,4R,5R)-5-(6-amino-2-chloro-9H-purin-9-yl)-3,4-dihydroxy-3-(prop-1-yn-1-yl)tetrahydrofuran-2-yl)methoxy)-2-benzylmalonic acid]
11 | 0.5 | Nc1nc(Cl)nc2c1ncn2[C@@H]1O[C@H](COC(Cc2ccccc2)(C(=O)O)C(=O)O)[C@](O)(C#CC2CC2)[C@H]1O [Compound 4, 2-(((2R,3S,4R,5R)-5-(6-amino-2-chloro-9H-purin-9-yl)-3-(cyclopropylethynyl)-3,4-dihydroxytetrahydrofuran-2-yl)methoxy)-2-benzylmalonic acid]
12 | 4 | C#C[C@@]1(O)[C@@H](COC(Cc2ccnc(Cl)c2)(C(=O)O)C(=O)O)O[C@@H](n2cnc3c(N)nc(Cl)nc32)[C@@H]1O [Compound 5, 2-(((2R,3S,4R,5R)-5-(6-amino-2-chloro-9H-purin-9-yl)-3-ethynyl-3,4-dihydroxytetrahydrofuran-2-yl)methoxy)-2-((2-chloropyridin-4-yl)methyl)malonic acid]
13 | 8 | C#C[C@@]1(O)[C@@H](COC(Cc2ccncc2)(C(=O)O)C(=O)O)O[C@@H](n2cnc3c(N)nc(Cl)nc32)[C@@H]1O [Compound 7, 2-(((2R,3S,4R,5R)-5-(6-amino-2-chloro-9H-purin-9-yl)-3-ethynyl-3,4-dihydroxytetrahydrofuran-2-yl)methoxy)-2-(pyridin-4-ylmethyl)malonic acid]
14 | 2 | C#C[C@@]1(O)[C@@H](COC(Cc2ccoc2)(C(=O)O)C(=O)O)O[C@@H](n2cnc3c(N)nc(Cl)nc32)[C@@H]1O [Compound 8, 2-(((2R,3S,4R,5R)-5-(6-amino-2-chloro-9H-purin-9-yl)-3-ethynyl-3,4-dihydroxytetrahydrofuran-2-yl)methoxy)-2-(furan-3-ylmethyl)malonic acid]
15 | 0.26 | C#C[C@@]1(O)[C@@H](COC(Cc2ccc(N3CCCCC3=O)cc2)(C(=O)O)C(=O)O)O[C@@H](n2cnc3c(N)nc(Cl)nc32)[C@@H]1O [Compound 10, 2-(((2R,3S,4R,5R)-5-(6-amino-2-chloro-9H-purin-9-yl)-3-ethynyl-3,4-dihydroxytetrahydrofuran-2-yl)methoxy)-2-(4-(2-oxopiperidin-1-yl)benzyl)malonic acid]
16 | 0.1 | C#C[C@@]1(O)[C@@H](COC(Cc2ccc(-c3ccc[nH]c3=O)cc2)(C(=O)O)C(=O)O)O[C@@H](n2cnc3c(N)nc(Cl)nc32)[C@@H]1O [Example 12, 2-(((2R,3S,4R,5R)-5-(6-amino-2-chloro-9H-purin-9-yl)-3-ethynyl-3,4-dihydroxytetrahydrofuran-2-yl)methoxy)-2-(4-(2-oxo-1,2-dihydropyridin-3-yl)benzyl)malonic acid]
17 | 0.3 | C#C[C@@]1(O)[C@@H](COC(Cc2ccc(-c3ccccc3)c(C(=O)O)c2)(C(=O)O)C(=O)O)O[C@@H](n2cnc3c(N)nc(Cl)nc32)[C@@H]1O [Example 13, 2-(((2R,3S,4R,5R)-5-(6-amino-2-chloro-9H-purin-9-yl)-3-ethynyl-3,4-dihydroxytetrahydrofuran-2-yl)methoxy)-2-((2-carboxy-[1,1′-biphenyl]-4-yl)methyl)malonic acid]
18 | 0.6 | C#C[C@@]1(O)[C@@H](COC(Cc2ccccc2)(C(=O)O)C(=O)O)O[C@@H](n2cnc3c(-c4ccccc4)nc(Cl)nc32)[C@@H]1O [Example 14, 2-benzyl-2-(((2R,3S,4R,5R)-5-(2-chloro-6-phenyl-9H-purin-9-yl)-3-ethynyl-3,4-dihydroxytetrahydrofuran-2-yl)methoxy)malonic acid]
19 | 20 | C#C[C@@]1(O)[C@@H](COC(CC=C)(C(=O)O)C(=O)O)O[C@@H](n2cnc3c(N)nc(Cl)nc32)[C@@H]1O [Example 15, 2-allyl-2-(((2R,3S,4R,5R)-5-(6-amino-2-chloro-9H-purin-9-yl)-3-ethynyl-3,4-dihydroxytetrahydrofuran-2-yl)methoxy)malonic acid]
20 | 24 | C#C[C@@]1(O)[C@@H](COC(CC)(C(=O)O)C(=O)O)O[C@@H](n2cnc3c(N)nc(Cl)nc32)[C@@H]1O [Example 16, 2-(((2R,3S,4R,5R)-5-(6-amino-2-chloro-9H-purin-9-yl)-3-ethynyl-3,4-dihydroxytetrahydrofuran-2-yl)methoxy)-2-ethylmalonic acid]
21 | 347 | C#C[C@@]1(O)[C@@H](COC(C)(C(=O)O)C(=O)O)O[C@@H](n2cnc3c(N)nc(Cl)nc32)[C@@H]1O [Example 17, 2-(((2R,3S,4R,5R)-5-(6-amino-2-chloro-9H-purin-9-yl)-3-ethynyl-3,4-dihydroxytetrahydrofuran-2-yl)methoxy)-2-methylmalonic acid]
22 | 0.3 | C#C[C@@]1(O)[C@@H](COC(Cc2ccccc2)(C(=O)O)C(=O)O)O[C@@H](n2cnc3c(-c4cccs4)nc(Cl)nc32)[C@@H]1O [Example 18, 2-benzyl-2-(((2R,3S,4R,5R)-5-(2-chloro-6-(thiophen-2-yl)-9H-purin-9-yl)-3-ethynyl-3,4-dihydroxytetrahydrofuran-2-yl)methoxy)malonic acid]
23 | 0.2 | C#C[C@@]1(O)[C@@H](COC(Cc2ccc(-c3cccn(CCC)c3=O)cc2)(C(=O)O)C(=O)O)O[C@@H](n2cnc3c(N)nc(Cl)nc32)[C@@H]1O [Example 19, 2-(((2R,3S,4R,5R)-5-(6-amino-2-chloro-9H-purin-9-yl)-3-ethynyl-3,4-dihydroxytetrahydrofuran-2-yl)methoxy)-2-(4-(2-oxo-1-propy-1,2-dihydropyridin-3-yl)benzyl)malonic acid]
24 | 0.3 | C#C[C@@]1(O)[C@@H](COC(Cc2ccc(-c3cccn(CCO)c3=O)cc2)(C(=O)O)C(=O)O)O[C@@H](n2cnc3c(N)nc(Cl)nc32)[C@@H]1O [Example 21, 2-(((2R,3S,4R,5R)-5-(6-amino-2-chloro-9H-purin-9-yl)-3-ethynyl-3,4-dihydroxytetrahydrofuran-2-yl)methoxy)-2-(4-(1-(2-hydroxyethyl)-2-oxo-1,2-dihydropyridin-3-yl)benzyl)malonic acid]
25 | 0.3 | C#C[C@@]1(O)[C@@H](COC(Cc2ccc(-c3cccnc3OC)cc2)(C(=O)O)C(=O)O)O[C@@H](n2cnc3c(N)nc(Cl)nc32)[C@@H]1O [Example 22, 2-(((2R,3S,4R,5R)-5-(6-amino-2-chloro-9H-purin-9-yl)-3-ethynyl-3,4-dihydroxytetrahydrofuran-2-yl)methoxy)-2-(4-(2-methoxypyridin-3-yl)benzyl)malonic acid]

Row | Structure (SMILES) | IC50 [nM]
26 | C#C[C@@]1(O)[C@@H](COC(Cc2ccc(-c3cccn(COC)c3=O)cc2)(C(=O)O)C(=O)O)O[C@@H](n2cnc3c(N)nc(Cl)nc32)[C@@H]1O [Compound 11, 2-(((2R,3S,4R,5R)-5-(6-amino-2-chloro-9H-purin-9-yl)-3-ethynyl-3,4-dihydroxytetrahydrofuran-2-yl)methoxy)-2-(4-(1-(methoxymethyl)-2-oxo-1,2-dihydropyridin-3-yl)benzyl)malonic acid] | 0.06
27 | C#C[C@@]1(O)[C@@H](COC(Cc2ccc(-c3cccn(CC)c3=O)cc2)(C(=O)O)C(=O)O)O[C@@H](n2cnc3c(N)nc(Cl)nc32)[C@@H]1O [Example 20, 2-(((2R,3S,4R,5R)-5-(6-amino-2-chloro-9H-purin-9-yl)-3-ethynyl-3,4-dihydroxytetrahydrofuran-2-yl)methoxy)-2-(4-(1-ethyl-2-oxo-1,2-dihydropyridin-3-yl)benzyl)malonic acid] | 0.2
